According to patent EP0388245A1, “Agent resistant to AIDS virus” (TERUMO KABUSHIKI KAISHA, priority 1989, dated 1990):

Legend:
[1] = test system: HTLV-IIIb (one kind of HIV); assay: Test for activity to inhibit hyperplasia of HIV: suppression of cytopathic effect (CPE), live cells counted by trypan blue; type: cell-based, human immunodeficiency virus (HIV); details: for MT-4/HIV (live cells): HTLV-IIIb infected MT-4 cells, MOI 0.02, 4 days
Description: (§1) A test for the activity to inhibit hyperplasia of HIV was conducted in accordance with the method proposed by Harada et al [Science, 229, 563-5663 (1985)]. Testing conditions: Cell: […] (HTLV-I-carrying cell line) Virus: THLV-IIIb (one kind of HIV); HTLV-IIIb was prepared from the supernatant of the culture broth of MOLT-4/HIV, a HIV-producing cell. The potency of the virus was 1 x 10⁶ TCID 50/ml. Culture medium: RPMI-1640 (containing 10% bovine fetal serum, 100 IV/penicilin, and 100 µg/ml streptomycin) Culture conditions: In each of the wells of a 24-well culture tray, […] cells (6.6 x 10⁵/ml, 0.3 ml) and HTLV-II Ib ([…], 0.2 ml) were placed [multiplicity of infection (MOI = 0.02)] and cultured for 1 hour. After adsorption of virus, Compound A diluted with culture medium (0.5 ml) was added to a total volume of 1.0 ml and cultured at 37°C for 4 days. Cells not infected by HTLV-IIIb dilution aqueous solution and cells not treated with Compound A were used as controls.
(§2) Virally infected cells and uninfected cells were cultured for 4 days. After the culture, the live cells were counted by the trypan blue tinting method. The property of cytopathic effect suppression was evaluated by comparison of the number of live cells in the culture broths of virally infected cells and uninfected cells both obtained in the absence of Compound A.

MT-4 = assay: Toxicity to uninfected MT-4 cells, live cell count by trypan blue after 4 days culture; type: cell-based; details: for MT-4 (live cells) / Toxicity (% control): uninfected MT-4 cells; for MT-4 (live cells): 4 days
Description: as §1, §2

[2] = test system: Reverse transcriptase originating in avain myeloblastic virum; assay: Test for activity to inhibit reverse transcriptase ([³H] thymidine triphosphate incorporation); type: biochemical; design: Radio activity #1 / Radio activity #2: unit not given here; details: for % control: inhibition of reverse transcriptase
Description: This test was carried out by the method described below.
This test solution was prepared by dissolving Compound A in a concentration of 5 mg/ml in dimethyl sulfoxide and diluting the resultant solution with distilled water.
Fifty (50) µl of the measuring solution and 50 µl of the test solution were mixed and left reacting at 37°C for one hour. The reaction mixture was cooled with ice to stop the reaction. Then 50 µl of […] by a disk of DEAE cellulose paper 2.4 cm in diameter. The wet paper was washed three times with an aqueous 5% […] (with 12 molecules of crystal water) and once each with distilled water and ethanol. The radioactivity was determined with a liquid scintillation counter.

Substance: K₇PW₁₀Ti₂O₄₀·6H₂O [Compound A]
- activity to control CPE ([1]; 25 to 100 ug/ml, MT-4/HIV): excelled in activity to control CPE
- MT-4/HIV (live cells) ([1]; Compound A 25 µg/ml): 10.0 x 10⁵ cells/ml
- MT-4/HIV (live cells) ([1]; Compound A 50 µg/ml): 9.8 x 10⁵ cells/ml
- MT-4/HIV (live cells) ([1]; Compound A 100 µg/ml): 8.5 x 10⁵ cells/ml
- MT-4/HIV (live cells) ([1]; Compound A 200 µg/ml): 4.8 x 10⁵ cells/ml
- MT-4/HIV (live cells) ([1]; Compound A 400 µg/ml): 4.7 x 10⁵ cells/ml
- % CPE Control ([1]; MT-4/HIV, Compound A 25 µg/ml): 90%
- % CPE Control ([1]; MT-4/HIV, Compound A 50 µg/ml): 88%
- % CPE Control ([1]; MT-4/HIV, Compound A 100 µg/ml): 71%
- % CPE Control ([1]; MT-4/HIV, Compound A 200 µg/ml): 25%
- % CPE Control ([1]; MT-4/HIV, Compound A 400 µg/ml): 47%
- toxicity (MT-4; 25 to 100 ug/ml, MT-4): only inconspicuous toxicity
- MT-4 (live cells) (MT-4; Compound A 25 µg/ml): 11.8 x 10⁵ cells/ml
- MT-4 (live cells) (MT-4; Compound A 50 µg/ml): 9.8 x 10⁵ cells/ml
- MT-4 (live cells) (MT-4; Compound A 100 µg/ml): 10.1 x 10⁵ cells/ml
- MT-4 (live cells) (MT-4; Compound A 200 µg/ml): 8.5 x 10⁵ cells/ml
- MT-4 (live cells) (MT-4; Compound A 400 µg/ml): 6.0 x 10⁵ cells/ml
- Toxicity (% control) (MT-4; Compound A 25 µg/ml): 0 % control
- Toxicity (% control) (MT-4; Compound A 50 µg/ml): 1 % control
- Toxicity (% control) (MT-4; Compound A 100 µg/ml): 0 % control
- Toxicity (% control) (MT-4; Compound A 200 µg/ml): 21 % control
- Toxicity (% control) (MT-4; Compound A 400 µg/ml): 44 % control
- Average value (CPM) ([2]; Concentration 12,500 µg/ml): 3906.0 CPM
- Radio activity #1 ([2]; Concentration 12,500 µg/ml): 3666
- Radio activity #2 ([2]; Concentration 12,500 µg/ml): 4146
- % control ([2]; Concentration 12,500 µg/ml): 50.8%
- Average value (CPM) ([2]; Concentration 25,000 µg/ml): 3878.0 CPM
- Radio activity #1 ([2]; Concentration 25,000 µg/ml): 3143
- Radio activity #2 ([2]; Concentration 25,000 µg/ml): 4613
- % control ([2]; Concentration 25,000 µg/ml): 51.2%
- Average value (CPM) ([2]; Concentration 50,000 µg/ml): 2450.5 CPM
- Radio activity #1 ([2]; Concentration 50,000 µg/ml): 1828
- Radio activity #2 ([2]; Concentration 50,000 µg/ml): 3079
- % control ([2]; Concentration 50,000 µg/ml): 71.1%
- Average value (CPM) ([2]; Concentration 100,000 µg/ml): 1391.0 CPM
- Radio activity #1 ([2]; Concentration 100,000 µg/ml): 1231
- Radio activity #2 ([2]; Concentration 100,000 µg/ml): 1391
- % control ([2]; Concentration 100,000 µg/ml): 86.0%
- Average value (CPM) ([2]; Concentration 200,000 µg/ml): 967.0 CPM
- Radio activity #1 ([2]; Concentration 200,000 µg/ml): 970
- Radio activity #2 ([2]; Concentration 200,000 µg/ml): 930
- % control ([2]; Concentration 200,000 µg/ml): 92.0%
- activity to inhibit reverse transcriptase ([2]; summary in words of Table 2): manifested an activity to inhibit reverse transcriptase even in a small application rate
